Data set [1] is described as follows: logP by HPLC on reversed-phase column (C18), EEC Directive 79/831 Annex V.A8. It counts as physicochemical. Conditions: HPLC, reversed-phase C18, acetonitrile (0.1% formic acid)/water (0.09% formic acid) gradient.
For data set [2], the system named is Lucilia cuprina. The experiment in a line: Lucilia cuprina - test. It counts as in vivo. Particulars: 100 ppm, L1 larvae, after 2 days. The method, then:
(§1) Solvent: dimethyl sulphoxide
(§2) To produce an appropriate active ingredient formulation, 10 mg of active ingredient are mixed with 0.5 ml of dimethyl sulphoxide, and the concentrate is diluted with water to the desired concentration.
(§3) About 20 L1 larvae of the Australian sheep blowfly (Lucilia cuprina) are transferred into a test vessel containing minced horsemeat and the active ingredient preparation of the desired concentration.
(§4) After 2 days, the kill in % is determined 100% means that all the larvae have been killed; 0% means that none of the larvae have been killed.

Data set [3] concerns Rhipicephalus sanguineus. In words: Rhipicephalus sanguineus - in vitro contact tests with brown dog ticks (RHIPSA). It counts as in vivo. Conditions: 1 μg/cm^2, adult ticks, after 48 h. The method, then: For the coating of the test tubes, 9 mg of active ingredient are first dissolved in 1 ml of acetone p.a. and then diluted to the desired concentration with acetone p.a. 250 μl of the solution are distributed homogeneously on the inner walls and base of a test tube (25 ml crimp top vial (Fisher Scientific, Order No. 320 55 60) by turning and rocking on a “Rock ‘n’ Roller” (Model L202, Labinco; rocking rotation at 30 rpm in a fume hood for 2 h). With 900 ppm active ingredient solution and internal surface area 44.7 cm^2, given homogeneous distribution, an area-based dose of 5 μg/cm^2 is achieved.
Preparation examples for the inventive halogen-substituted compounds of the formula (I) are tested for their contact efficiency with ectoparasitic arachnids (brown dog ticks here). For this purpose, crimp top vials are coated with 250 μl of an acetone solution of the active ingredient as described above. […] After 48 h, efficacy (knockdown and mortality) and mortality are determined To this end, the ticks are knocked to the floor of the tube and incubated on a hotplate at 45-50° C. for not more than 5 min Ticks which remain motionless on the floor or move in such an uncoordinated manner that they are unable to deliberately avoid the heat by climbing upwards are considered to be dead or knocked down (moribund).

Data set [4] deals with Rhipicephalus sanguineus. In words: Rhipicephalus sanguineus - in vitro contact tests with adult brown dog ticks. The data set is classed as in vivo. Particulars: 5 μg/cm^2, adult dog ticks, after 48 h. The procedure: For the coating of the test tubes, 9 mg of active ingredient are first dissolved in 1 ml of acetone p.a. and then diluted to the desired concentration with acetone p.a. 250 μl of the solution are distributed homogeneously on the inner walls and base of a 25 ml test tube by turning and rocking on an orbital shaker (rocking rotation at 30 rpm for 2 h). With 900 ppm active ingredient solution and internal surface 44.7 cm^2, given homogeneous distribution, an area-based dose of 5 μg/cm^2 is achieved.
After the solvent has evaporated off, the tubes are populated with 5-10 adult dog ticks (Rhipicephalus sanguineus), sealed with a perforated plastic lid and incubated in a horizontal position in the dark at room temperature and ambient humidity. After 48 h, efficacy is determined To this end, the ticks are knocked to the floor of the tube and incubated on a hotplate at 45-50° C. for not more than 5 min Ticks which remain motionless on the floor or move in such an uncoordinated manner that they are unable to deliberately avoid the heat by climbing upwards are considered to be dead or moribund.
An efficacy of 100% means that all the ticks were dead or moribund. 0% efficacy means that none of the ticks had been harmed.

Data set [5] relates to Boophilus microplus Parkhurst strain, SP-resistant. In words: Boophilus microplus - dip test. The data set is classed as in vivo. Particulars: 100 ppm, adult engorged female cattle ticks, after 7 days. The method, then:
Test animals: cattle ticks (Boophilus microplus) Parkhurst strain, SP-resistant
as §1
10 mg of active ingredient are dissolved in 0.5 ml of dimethyl sulphoxide. For the purpose of producing a suitable formulation, the active ingredient solution is diluted with water to the concentration desired in each case.
This active ingredient formulation is pipetted into tubes. 8-10 adult engorged female cattle ticks (Boophilus microplus) are transferred into a further tube with holes. The tube is immersed into the active ingredient formulation, and all the ticks are completely wetted. After the liquid has run out, the ticks are transferred on filter discs into plastic dishes and stored in a climate-controlled room.
Efficacy is assessed after 7 days by laying of fertile eggs. Eggs which are not visibly fertile are stored in a climate-controlled cabinet until the larvae hatch after about 42 days. An efficacy of 100% means that none of the ticks has laid any fertile eggs; 0% means that all the eggs are fertile.

Another data set deals with Phaedon cochleariae. The experiment in a line: Phaedon cochleariae - spray test. The data set is classed as in vivo. Particulars: 100 g/ha, Chinese cabbage leaf discs, after 7 days. The procedure:
Solvent: 78.0 parts by weight of acetone
(§5) • 1.5 parts by weight of dimethylformamide Emulsifier: alkylaryl polyglycol ether
(§6) To produce an appropriate active ingredient formulation, 1 part by weight of active ingredient is dissolved using the specified parts by weight of solvent and made up with water containing an emulsifier concentration of 1000 ppm until the desired concentration is attained. To produce further test concentrations, the preparation is diluted with emulsifier-containing water.
Discs of Chinese cabbage leaves (Brassica pekinensis) are sprayed with an active ingredient formulation of the desired concentration and, after drying, populated with larvae of the mustard beetle (Phaedon cochleariae).
After 7 days, efficacy in % is determined 100% means that all the beetle larvae have been killed; 0% means that no beetle larvae have been killed.

Data set [6] deals with Musca domestica. In words: Musca domestica test (MUSCDO). The data set is classed as in vivo. Conditions: 20 ppm, adult houseflies, after 2 days. The method, then:
as §1, §2
(§7) Vessels containing a sponge treated with sugar solution and the active ingredient formulation of the desired concentration are populated with 10 adult houseflies (Musca domestica).
After 2 days, the kill in % is determined 100% means that all of the flies have been killed or knocked down; 0% means that none of the flies have been killed or knocked down.

Another data set relates to Myzus persicae. The experiment in a line: Myzus persicae - spray test. The data set is classed as in vivo. Conditions: 100 g/ha, Chinese cabbage leaf discs, after 6 days. The procedure:
Solvent: 78 parts by weight of acetone
as §5, §6
Discs of Chinese cabbage leaves (Brassica pekinensis) infested by all stages of the green peach aphid (Myzus persicae) are sprayed with an active ingredient formulation of the desired concentration.
After 6 days, efficacy in % is determined. 100% means that all the aphids have been killed; 0% means that none of the aphids have been killed.

Data set [7] deals with Lucilia cuprina. The experiment in a line: Lucilia cuprina test (LUCICU). It counts as in vivo. Particulars: 20 ppm, L1 larvae, after 2 days. The method, then: as §1, §2, §3, §4
The test system of another data set is Amblyomma hebraeum. The experiment in a line: Amblyomma hebaraeum - test (tick nymphs, immersion). The data set is classed as in vivo. Particulars: 100 ppm, tick nymphs immersed one minute, after 42 days. The method, then: as §1, §2
Tick nymphs (Amblyomma hebraeum) are placed into perforated plastic beakers and immersed in the desired concentration for one minute. The ticks are transferred on filter paper into a Petri dish and stored in a climate-controlled cabinet.
After 42 days, the kill in % is determined 100% means that all of the ticks have been killed; 0% means that none of the ticks have been killed.

Data set [8] relates to Musca domestica. In words: Musca domestica - test. It counts as in vivo. Conditions: 100 ppm, adult houseflies, after 2 days. The procedure: as §1, §2, §7
After 2 days, the kill in % is determined 100% means that all of the flies have been killed; 0% means that none of the flies have been killed.

Compound `Cc1cc(C(F)(C(F)(F)F)C(F)(F)F)cc(C)c1-c1cn(-c2ccc(Cl)c(C(=O)NC3CC3)c2)nn1` [I-T48-1, 2-chloro-N-cyclopropyl-5-[4-[2,6-dimethyl-4-[1,2,2,2-tetrafluoro-1-(trifluoromethyl)ethyl]phenyl]triazol-1-yl]benzamide] registered a chromatographic logP in data set [1] of 4.19. Besides, the “efficacy (kill in %)” value with Lucilia cuprina [2], with Lucilia cuprina [7], in the data set on Amblyomma hebraeum and with Musca domestica [8] was 100% throughout. The “efficacy (dead or knocked down)” value in the data set with Rhipicephalus sanguineus [3] stood at 100%. In addition, the “efficacy (dead or moribund)” value in the data set with Rhipicephalus sanguineus [4] is 100%. Also, in data set [5], the “efficacy (no fertile eggs laid)” value is on record as 100%. In addition, the “efficacy (beetle larvae killed)” value in the data set on Phaedon cochleariae worked out at 100%. The “efficacy (killed or knocked down)” value in the data set on Musca domestica [6] stood at 100%. For the same compound, in the data set on Myzus persicae, the “efficacy (aphids killed)” value is 100%.

As a reminder, the chromatographic logP is a lipophilicity value derived from retention on a column. A low value points to lower lipophilicity.

Values taken from patent publication US10836732B2, “Compounds for combating arthropods” (priority 2013, dated 2020).
